Test results reported in patent publication US12577231B2, “Androgen receptor PROTACS” (GlaxoSmithKline Intellectual Property Development Limited, priority 2023, dated 2026).
Substitutions are numbered along the chain they refer to.

How the values were obtained:
in vivo = conditions: male, Wistar Han, rat, po
Experimental: Systemic exposure of various forms of N-((1r,3r)-3-(4-cyano-3-methoxyphenoxy)-2,2,4,4-tetramethylcyclobutyl)-4-(4-((4-(4-(2,4-dioxotetrahydropyrimidin-1(2H)-yl)-1H-pyrazolo[4,3-c]pyridin-1-yl)piperidin-1-yl)methyl)piperidin-1-yl)-3-fluorobenzamide were assessed following oral administration of 30 mg/kg of a suspension formulation (1% methylcellulose (aq)) or following oral administration of 35 mg/kg of a suspension formulation (100% PEG400) in the male Wistar Han rat. […] The sampling period was 72 hours, and the data is reported in the attached table as mean±SD (n=3).

[1] = target: T1, Androgen receptor T878A/H875Y (Homo sapiens, UniProt P10275, H875Y/T878A); experiment: Degradation of overexpressed Androgen Receptor in A549 cells (HiBiT), T878A/H875Y; type: cell-based; conditions: A549 cells overexpressing AR T878A.H875Y, cycloheximide, 24 hours
T1 construct: expressed in transfected cells; host or cells: A549, transduced, puromycin selected
T1 sequence (P10275 1-920 H875Y/T878A): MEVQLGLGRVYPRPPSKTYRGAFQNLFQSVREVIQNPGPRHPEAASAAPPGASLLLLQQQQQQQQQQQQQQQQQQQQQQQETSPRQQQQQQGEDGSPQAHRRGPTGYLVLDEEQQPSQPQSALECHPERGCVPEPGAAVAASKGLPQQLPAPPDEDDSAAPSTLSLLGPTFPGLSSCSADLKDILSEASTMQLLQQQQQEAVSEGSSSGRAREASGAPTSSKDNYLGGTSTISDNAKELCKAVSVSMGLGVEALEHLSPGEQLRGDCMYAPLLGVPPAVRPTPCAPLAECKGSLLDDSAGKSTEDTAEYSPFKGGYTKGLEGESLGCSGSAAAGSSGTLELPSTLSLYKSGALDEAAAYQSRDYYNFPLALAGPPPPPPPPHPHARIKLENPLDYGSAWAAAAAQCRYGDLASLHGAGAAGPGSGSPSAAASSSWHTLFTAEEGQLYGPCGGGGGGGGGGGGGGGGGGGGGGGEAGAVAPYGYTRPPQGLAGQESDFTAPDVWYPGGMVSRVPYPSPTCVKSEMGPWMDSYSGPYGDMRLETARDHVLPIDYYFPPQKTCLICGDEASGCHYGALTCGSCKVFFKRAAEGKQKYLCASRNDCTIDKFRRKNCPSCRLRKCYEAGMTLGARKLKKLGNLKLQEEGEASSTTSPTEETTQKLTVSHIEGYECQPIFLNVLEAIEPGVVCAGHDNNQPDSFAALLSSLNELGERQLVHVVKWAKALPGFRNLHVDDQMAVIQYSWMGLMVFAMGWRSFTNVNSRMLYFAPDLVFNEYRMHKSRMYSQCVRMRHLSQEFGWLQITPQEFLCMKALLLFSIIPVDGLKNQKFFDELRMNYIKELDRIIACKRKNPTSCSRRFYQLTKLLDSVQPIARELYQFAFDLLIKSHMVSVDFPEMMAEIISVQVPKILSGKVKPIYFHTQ
Experimental: (§1) A549 cells were transduced to express wild type androgen receptor and Androgen receptor containing the following mutations (L702H, H875Y W742C W742L F877L, T878A and T878A/H875Y) with HiBiT tags. Transduced cells following puromycin selection were maintained in a humidified incubator (at 37° C. and 5% CO2 in the DMEM medium supplemented with 1% (v/v) Pen/Strep, 1% (v/v) Glutamax and 10% (v/v) FBS. A549 cells expressing each AR construct were detached from plate and counted. Cell suspensions at density 0.2 million per mL were prepared. Cell suspension was supplemented with 100 μg/mL of cycloheximide to block protein synthesis. Cells were preincubated with cycloheximide for 1 hr before seeding. Cells were seeded onto 384-well plate at density of 5,000 in 25 μL per well. A two fold serial dilution of test compounds, starting from 1 μM (row A) in 2-fold serial dilution series across the column using Tecan D300e dispenser. […]
(§2) Nano-Glo HiBiT Lytic reagent was prepared by adding LgBiT protein and Nano-Glo® substrate to lytic buffer pre-equilibrated at room temperature following manufacturer protocol (https://www.promega.co.uk/resources/protocols/technical-manuals/101/nanoglo-luciferase-assay-system-protocol). […] The plates were then centrifuged (100×G, 1 min) and incubated on shaker for 10 mins before taking readings on Pherastar Luminescence microplate reader. […]

Androgen receptor W742C = target: T2, Androgen receptor W742C (Homo sapiens, UniProt P10275, W742C); experiment: Degradation of overexpressed Androgen Receptor in A549 cells (HiBiT), W742C; type: cell-based; conditions: A549 cells overexpressing AR W742C, cycloheximide, 24 hours
T2 construct: expressed in transfected cells; host or cells: A549, transduced, puromycin selected
T2 sequence (P10275 1-920 W742C): T1 sequence (P10275 1-920 H875Y/T878A) with W742C, Y875H, A878T
Experimental: as §1, §2

Compound: COc1cc(O[C@H]2C(C)(C)[C@H](NC(=O)c3ccc(N4CCC(CN5CCC(n6ncc7c(N8CCC(=O)NC8=O)nccc76)CC5)CC4)c(F)c3)C2(C)C)ccc1C#N [Example 20, N-((1r,3r)-3-(4-Cyano-3-methoxyphenoxy)-2,2,4,4-tetramethylcyclobutyl)-4-(4-((4-(4-(2,4-dioxotetrahydropyrimidin-1(2H)-yl)-1H-pyrazolo[4,3-c]pyridin-1-yl)piperidin-1-yl)methyl)piperidin-1-yl)-3-fluorobenzamide]
- AUC0-t (in vivo; 30 mg/kg): 7220 ± 1220 ng·h/mL
- Cmax (in vivo; 30 mg/kg): 318 ± 50 ng/mL
- Tmax (in vivo; 30 mg/kg): 8 h
- AUC0-t (in vivo; 35 mg/kg): 26200 ± 1750 ng·h/mL
- Cmax (in vivo; 35 mg/kg): 849 ± 98 ng/mL
- Tmax (in vivo; 35 mg/kg): 8.7 ± 3 h
- Summary pXC50 [1]: 8.57
- Summary pXC50 (Androgen receptor W742C): 8.57
